# Measured values from patent publication US12290587B2, “Anti-aging cosmetic compositions” (GIVAUDAN SA, priority 2019, dated 2025).
# Test system: Normal Human Dermal Fibroblasts
# Test: Mitochondrial mass (MitoTracker Green FM) in Normal Human Dermal Fibroblasts
# Type: cell-based
# Details: 20 mM, insulin 100 nM
# Description: Normal Human Dermal Fibroblasts were isolated from skin biopsy coming from a breast reduction surgery on a person. 10′000 cells per well were seeded in a black 96-wells plate with DMEM (Dulbecco's Modified Eagle's Medium, Gibco) supplemented with 10% FCS (Fetal Calf Serum, Biowest) and 1% antibiotics (Sigma Aldrich) and were cultured for 72 hours in an incubator at 37° C. in a humid atmosphere containing 5% CO2. Cells were then rinsed two times with PBS (Phosphate Buffer Saline) before being incubated with FCS-free DMEM medium overnight in the same incubator. On the next day, the cells were treated with (i) mannose at 20 mM, (ii) mannose-6-phosphate at 20 mM or (iii) the above-mentioned Mannose-6-Phosphate complex at 20 mM (n=3) in the presence of insulin (100 nM). After 1 hour and 48 hours of treatment, MitoTracker™ Green FM (ThermoFisher) was added directly in each well for a final concentration of 200 nM and the plate was incubated in the dark in the incubator for 15 minutes. Cells were then rinsed off two times with PBS and each well was filled with 200 μl PBS. Fluorescence intensity of MitoTracker™ Green FM was measured with a microplate reader (Excitation wavelength: 488 nm/Emission wavelength: 525 nm). In this study, the mitochondrial mass in cells was determined using the fluorescence intensity emitted by MitoTracker™ Green FM.
structure (smiles),measurement,setting,value
O=C[C@@H](O)[C@@H](O)[C@H](O)[C@H](O)COP(=O)(O)O [mannose-6-phosphate],decrease of MitoTracker Green FM specific signal (mitochondrial mass),1 hour treatment,−53%
same,decrease of MitoTracker Green FM specific signal (mitochondrial mass),48 hours of treatment,−60%
